Structures can show the parent of a compound that is named as a salt.

One assay has as its system Acinetobacter baumannii ATCC17961. Kind of assay: Antimicrobial susceptibility testing: 90% growth inhibitory concentration (IC90) determination. It counts as cell-based. The note with it: Acinetobacter baumannii ATCC17961; Iso-Sensitest broth; growth by OD 600 nm over 16 h; 35±2° C.; read-out: ATCC 17961 IC90. Here is the method:
The in vitro antimicrobial activity of the compounds was determined according to the following procedure:
The assay used a 10-points Iso-Sensitest broth medium to measure quantitatively the in vitro activity of the compounds against Acinetobacter baumannii ATCC17961.
Stock compounds in DMSO were serially twofold diluted (e.g. range from 50 to 0.097 μM final concentration) in 384 wells microtiter plates and inoculated with 49 μl the bacterial suspension in Iso-Sensitest medium to have a final cell concentration of ˜5×10^(5) CFU/ml in a final volume/well of 50 ul/well. Microtiter plates were incubated at 35±2° C.
Bacterial cell growth was determined with the measurement of optical density at λ=600 nm each 20 minutes over a time course of 16 h. Growth inhibition was calculated during the logarithmic growth of the bacterial cells with determination of the concentration inhibiting 50% (IC50) and 90% (IC90) of the growth.
Table 1 provides the […] growth inhibitory concentrations (IC90) in micromoles per liter of the compounds of present invention obtained against the strain Acinetobacter baumannii ATCC17961.
Broadly, the IC90 is the concentration at which the effect reaches the 90% level. Consider `Cc1cc(NC(=O)c2ncc(-c3ccc(OCC#N)c(F)c3F)n2C)ccc1C(=O)N[C@H]1C[C@@H](NCC[N+](C)(C)C)C1` [Example A19, 2-[[3-[[4-[[5-[4-(cyanomethoxy)-2,3-difluoro-phenyl]-1-methyl-imidazole-2-carbonyl]amino]-2-methyl-benzoyl]amino]cyclobutyl]amino]ethyl-trimethyl-ammonium formate], for which the IC90 came to 1.2 µM.

As for `COc1ccc(-c2cnc(C(=O)Nc3ccc(C(=O)NCc4cn(CCO)[n+](C)c4)c(Cl)c3)n2C)c(F)c1F` [Example A20, N-[3-chloro-4-[[1-(2-hydroxyethyl)-2-methyl-pyrazol-2-ium-4-yl]methylcarbamoyl]phenyl]-5-(2,3-difluoro-4-methoxy-phenyl)-1-methyl-imidazole-2-carboxamide;formate], the IC90 came to 0.32 µM.

Turning to `COc1ccc(-c2cnc(C(=O)Nc3ccc(C(=O)NCc4cn(CCCO)[n+](C)c4)c(Cl)c3)n2C)c(F)c1F` [Example A21, N-[3-chloro-4-[1-(3-hydroxypropyl)-2-methyl-pyrazol-2-ium-4-yl]methylcarbamoyl]phenyl]-5-(2,3-difluoro-4-methoxy-phenyl)-1-methyl-imidazole-2-carboxamide; formate], the IC90 was determined as 0.33 µM.

Consider `COc1ccc(-c2cnc(C(=O)Nc3ccc(C(=O)NCc4cn(CCC#N)[n+](C)c4)c(Cl)c3)n2C)c(F)c1F` [Example A22, N-[3-chloro-4-[1-(2-cyanoethyl)-2-methyl-pyrazol-2-ium-4-yl]methylcarbamoyl]phenyl]-5-(2,3-difluoro-4-methoxy-phenyl)-1-methyl-imidazole-2-carboxamide; formate], for which the IC90 amounted to 0.39 µM.

Turning to `COc1ccc(-c2cnc(C(=O)Nc3ccc(C(=O)NCc4cn(CC(N)=O)[n+](C)c4)c(Cl)c3)n2C)c(F)c1F` [Example A23, N-[4-[1-(2-amino-2-oxo-ethyl)-2-methyl-pyrazol-2-ium-4-yl]methylcarbamoyl]-3-chloro-phenyl]-5-(2,3-difluoro-4-methoxy-phenyl)-1-methyl-imidazole-2-carboxamide; formate], the IC90 is 0.4 µM.

On to `COCCCn1cc(CNC(=O)c2ccc(NC(=O)c3ncc(-c4ccc(OC)c(F)c4F)n3C)cc2Cl)c[n+]1C` [Example A25, N-[3-chloro-4-[1-(3-methoxypropyl)-2-methyl-pyrazol-2-ium-4-yl]methylcarbamoyl]phenyl]-5-(2,3-difluoro-4-methoxy-phenyl)-1-methyl-imidazole-2-carboxamide; formate], for which the IC90 was 0.41 µM.

In the case of `COc1ccc(-c2cnc(C(=O)Nc3ccc(C(=O)NCc4cn(CCOCCO)[n+](C)c4)c(Cl)c3)n2C)c(F)c1F` [Example A26, N-[3-chloro-4-[1-[2-(2-hydroxyethoxy)ethyl]-2-methyl-pyrazol-2-ium-4-yl]methylcarbamoyl]phenyl]-5-(2,3-difluoro-4-methoxy-phenyl)-1-methyl-imidazole-2-carboxamide; formate], the IC90 turned out to be 0.41 µM.

`COc1ccc(-c2cnc(C(=O)Nc3ccc(C(=O)NCc4cnc(NC(=O)[C@@H]5C[C@@H](O)C[N+]5(C)C)s4)c(Cl)c3)n2C)c(F)c1F` [Example A27, N-[3-chloro-4-[[2-[[(2S,4R)-4-hydroxy-1,1-dimethyl-pyrrolidin-1-ium-2-carbonyl]amino]thiazol-5-yl]methylcarbamoyl]phenyl]-5-(2,3-difluoro-4-methoxy-phenyl)-1-methyl-imidazole-2-carboxamide; formate]: the IC90 came out at 0.056 µM.

Take `COc1ccc(-c2cnc(C(=O)Nc3ccc(C(=O)NCc4cnc(NC(=O)C5CCC[N+]5(C)C)s4)c(Cl)c3)n2C)c(F)c1F` (centres unmarked) [Example A28, N-[3-chloro-4-[2-[(1,1-dimethylpyrrolidin-1-ium-2-carbonyl)amino]thiazol-5-yl]methylcarbamoyl]phenyl]-5-(2,3-difluoro-4-methoxy-phenyl)-1-methyl-imidazole-2-carboxamide; formate]: the IC90 is 0.088 µM.

Turning to `COc1ccc(-c2cnc(C(=O)Nc3ccc(C(=O)NCc4cnc(NC(=O)C5CC[N+](C)(C)CC5)s4)c(Cl)c3)n2C)c(F)c1F` [Example A29, N-[5-[2-chloro-4-[[5-(2,3-difluoro-4-methoxy-phenyl)-1-methyl-imidazole-2-carbonyl]amino]benzoyl]amino]methyl]thiazol-2-yl]-1,1-dimethyl-piperidin-1-ium-4-carboxamide; formate], the 90% effect concentration (IC90) was found to be 0.17 µM.

Regarding `COc1ccc(-c2cnc(C(=O)Nc3ccc(C(=O)NCc4cnc(NC(=O)C5CC[N+](C)(CC(N)=O)CC5)s4)c(Cl)c3)n2C)c(F)c1F` (centres unmarked) [Example A30, 1-(2-amino-2-oxo-ethyl)-N-[5-[[[2-chloro-4-[[5-(2,3-difluoro-4-methoxy-phenyl)-1-methyl-imidazole-2-carbonyl]amino]benzoyl]amino]methyl]thiazol-2-yl]-1-methyl-piperidin-1-ium-4-carboxamide; formate], the 90% effect concentration (IC90) was found to be 0.14 µM.

With `COc1ccc(-c2cnc(C(=O)Nc3ccc(C(=O)N4CCC(C(=O)NCc5cnc(NC(=O)C6CC[N+](C)(C)CC6)s5)CC4)c(Cl)c3)n2C)c(F)c1F` [Example A31, N-[5-[[1-[2-chloro-4-[[5-(2,3-difluoro-4-methoxy-phenyl)-1-methyl-imidazole-2-carbonyl]amino]benzoyl]piperidine-4-carbonyl]amino]methyl]thiazol-2-yl]-1,1-dimethyl-piperidin-1-ium-4-carboxamide; formate], the IC90 was 0.17 µM.

In the case of `COc1ccc(-c2cnc(C(=O)Nc3ccc(C(=O)N4CCN(C(=O)C[N+](C)(C)CC(N)=O)CC4)c(C)c3)n2C)c(F)c1F` [Example B1, (2-Amino-2-oxo-ethyl)-[2-[4-[4-[[5-(2,3-difluoro-4-methoxy-phenyl)-1-methyl-imidazole-2-carbonyl]amino]-2-methyl-benzoyl]piperazin-1-yl]-2-oxo-ethyl]-dimethyl-ammonium;formate], the IC90 is 0.28 µM.

Regarding `Cc1cc(NC(=O)c2ncc(-c3ccc(OCC#N)c(F)c3F)n2C)ccc1C(=O)N1CCN(C(=O)C[N+](C)(C)CC(N)=O)CC1` [Example B2, (2-amino-2-oxo-ethyl)-[2-[4-[4-[[5-[4-(cyanomethoxy)-2,3-difluoro-phenyl]-1-methyl-imidazole-2-carbonyl]amino]-2-methyl-benzoyl]piperazin-1-yl]-2-oxo-ethyl]-dimethyl-mmonium; formate], the IC90 is 0.23 µM.

Turning to `COc1ccc(-c2cnc(C(=O)Nc3ccc(C(=O)N4CCN(C(=O)CC[N+](C)(C)CC(N)=O)CC4)c(C)c3)n2C)c(F)c1F` [Example B3, (2-amino-2-oxo-ethyl)-[3-[4-[4-[[5-(2,3-difluoro-4-methoxy-phenyl)-1-methyl-imidazole-2-carbonyl]amino]-2-methyl-benzoyl]piperazin-1-yl]-3-oxo-propyl]-dimethyl-ammonium; 2,2,2-trifluoroacetate], the IC90 came out at 0.19 µM.

On to `Cn1c(-c2ccc(OCC#N)c(F)c2F)cnc1C(=O)Nc1ccc(C(=O)N2CCN(C(=O)C[N+](C)(C)CC(N)=O)CC2)c(Cl)c1` [Example B4, (2-amino-2-oxo-ethyl)-[2-[4-[2-chloro-4-[[5-[4-(cyanomethoxy)-2,3-difluoro-phenyl]-1-methyl-imidazole-2-carbonyl]amino]benzoyl]piperazin-1-yl]-2-oxo-ethyl]-dimethyl-ammonium; formate], for which the IC90 stood at 0.11 µM.

Consider `COc1ccc(-c2cnc(C(=O)Nc3ccc(C(=O)N4CCC(NC(=O)C[N+](C)(C)CC(N)=O)CC4)c(Cl)c3)n2C)c(F)c1F` [Example B5, (2-amino-2-oxo-ethyl)-[2-[1-[2-chloro-4-[5-(2,3-difluoro-4-methoxy-phenyl)-1-methyl-imidazole-2-carbonyl]amino]benzoyl]-4-piperidyl]amino]-2-oxo-ethyl]-dimethyl-ammonium; formate], for which the IC90 is 0.12 µM.

In the case of `COc1ccc(-c2cnc(C(=O)Nc3ccc(C(=O)NC4CN(C(=O)C[N+](C)(C)CC(N)=O)C4)c(Cl)c3)n2C)c(F)c1F` [Example B6, (2-amino-2-oxo-ethyl)-[2-[3-[[2-chloro-4-[[5-(2,3-difluoro-4-methoxy-phenyl)-1-methyl-imidazole-2-carbonyl]amino]benzoyl]aminoJazetidin-1-yl]-2-oxo-ethyl]-dimethyl-ammonium; formate], the IC90 came to 0.29 µM.

Take `COc1ccc(-c2cnc(C(=O)Nc3ccc(C(=O)N4CCN(C(=O)C[N+](C)(C)CC(N)=O)CC4)c(Cl)c3)n2C)c(F)c1F` [Example B7, (2-amino-2-oxo-ethyl)-[2-[4-[2-chloro-4-[[5-(2,3-difluoro-4-methoxy-phenyl)-1-methyl-imidazole-2-carbonyl]amino]benzoyl]piperazin-1-yl]-2-oxo-ethyl]-dimethyl-ammonium; formate]: the IC90 worked out at 0.099 µM.

Still in this assay, the particulars now being: Acinetobacter baumannii, ATCC17961, 16 h, read-out: ATCC 17961 IC90, Acinetobacter baumannii ATCC17961; Iso-Sensitest broth; growth by OD 600 nm over 16 h; 35±2° C.
In the case of `COc1ccc(-c2cnc(C(=O)Nc3ccc(C(=O)NCc4cn(CCS(C)(=O)=O)[n+](C)c4)c(Cl)c3)n2C)c(F)c1F` [Example A24, N-[3-chloro-4-[[1-methyl-2-(2-methylsulfonylethyl)pyrazol-1-ium-4-yl]methylcarbamoyl]phenyl]-5-(2,3-difluoro-4-methoxy-phenyl)-1-methyl-imidazole-2-carboxamide; formate], the IC90 turned out to be 0.35 µM.
